Tested on: EVPOME tissue-engineered constructs (primary human oral keratinocytes)
Experiment: Quantitative histology scoring (H&E) of rapamycin-treated tissue-engineered constructs
Type: cell-based
Excerpt: A section was sliced across the construct, near the edge, fixed in 10% phosphate buffered formalin, and embedded in paraffin for hematoxylin and eosin (H&E) histology and immunohistochemistry (IHC). All the engineered tissues were sectioned for histological assessment and some for IHC imaging. Some engineered tissues were randomly selected for punch biopsies for WST-1 assay. The remaining intact constructs were non-invasively assessed with label-free optical imaging. For each construct, three sites were randomly selected for optical imaging. A tissue-engineered construct consists of three layers: keratin, living cellular, and dermal equivalent layer. Thus, for each site, one to two optical images were measured at lower and upper depths for the proliferating basal layer and the differentiating cellular layer respectively.
10 batches tissue-engineered constructs manufactured with cells from 10 independent patients were studied: 5 batches for the rapamycin experiment and 5 batches for the thermal-stress experiment. For the rapamycin experiment, 2 nM rapamycin was added in the medium at the cell culture stage for five days prior to tissue-stage culture and/or the tissue culture stage. Therefore, a total of four experimental conditions were created in the rapamycin experiment: • 1. Control+control: no rapamycin was added to the cultures during the two stages. • 2. Control+rapa: no rapamycin was added to the first cell culture stage medium; rapamycin was added to the second tissue culture stage medium. • 3. Rapa+control: rapamycin was added to the first cell culture stage medium; no rapamycin was added to the second tissue culture stage medium. • 4. Rapa+rapa: rapamycin was added to the medium used in both the culture stages.
All H&E histology slides were assessed by a panel of three blinded expert readers. Classification criteria were previously developed and detailed, where a viability score of 1 (least viable), 2, 3, 4, or 5 (most viable) was used. The classification criteria included the basal cell layer health, the construct cellular organization, and the keratin layer structural quality. The readers individually assigned a score to each EVPOME histology slide, while blinded to the construct condition and to the other readers' scores.
Quantitative histology scoring was performed to assess tissue morphology. Two groups of cultured cells were categorized: well-growing culture and poorly-growing culture. The well-growing and the poorly-growing cultures were defined by their control+control histology scores. A control+control score >3 is defined as well-growing. A control+control score <=3 is defined as poorly growing.

SMILES: CO[C@H]1C[C@@H]2CC[C@@H](C)[C@@](O)(O2)C(=O)C(=O)N2CCCC[C@H]2C(=O)O[C@H]([C@H](C)C[C@@H]2CC[C@@H](O)[C@H](OC)C2)CC(=O)[C@H](C)/C=C(\C)[C@@H](O)[C@@H](OC)C(=O)[C@H](C)C[C@H](C)/C=C/C=C/C=C/1C [Rapamycin]
- histology score (control+rapa construct (2 nM rapamycin in tissue culture stage only), poorly-growing culture, score 1 to 5): <= 3
- histology score (rapa+control construct (2 nM rapamycin in cell culture stage only), poorly-growing culture, score 1 (least viable) to 5 (most viable)): 4.7
- histology score (rapa+rapa construct (2 nM rapamycin in both culture stages), poorly-growing culture, score 1 to 5): <= 3
- histology score (well-growing culture, all four constructs incl. rapa+control, control+rapa, rapa+rapa, score 1 to 5): > 3

— patent US10281451B2, “Method of determining the viability of at least one cell” (The Regents of the University of Michigan, priority 2012, dated 2019)
